# Assay results as given in US20250205158A1, “BIODEGRADABLE LIPIDS AND FORMULATIONS FOR DELIVERY OF MRNA” (Massachusetts Institute of Technology, priority 2023, published 2025).
# “Also recorded” adds a separate entry of the source.
# Columns and labels:
# PCSK9 gene = test: CRISPR-Cas9 gene editing with mRNA LNPs; type: in vivo; conditions: dose of 3 mg/kg
# Experimental: The ability of AMG1541 mRNA LNPs to induce CRISPR-Cas9 gene editing was also evaluated (FIGS. 9A-9D).
# [1] = LNP characterization (diameter, PDI, % EE); type: physicochemical; conditions: LNP formulated with the named lipid
# Experimental: Representative LNP Characterization Data. The diameter, polydispersity index (PDI), and % EE were characterized for various LNPs.
# LNP characterization. Concentration of mRNA was determined using a Quant-IT Ribogreen assay. LNPs were diluted in either native TE buffer (ThermoFisher) or denaturing TE buffer+0.5% Triton-X 100 (Millipore-Sigma) to measure the “free” and total mRNA, respectively. 100 μL of these unknowns were added to a black 96-well plate. Separately, standard curves ranging from 2 ng/μL-0 ng/μL were prepared in each of these buffers and 100 μL were added to the same 96-well plate. Finally, Quant-IT Ribogreen reagent (ThermoFisher) was diluted 1:200 in TE buffer and 100 μL of this solution was added to each of the wells. The well plate was then mixed at 400 rpm with a plate shaker for 5 mins. and the fluorescence was read with an excitation/emission of 485/535. LNPs were measured in triplicate and standards were measured in duplicate. RNA concentration in each of the unknown wells was calculated by fitting the standard curves with a linear trendline. Encapsulation efficiency (% EE) was calculated according to: […]
# Dynamic light scattering and zeta potential measurements were performed using a Malvern Zetasizer system. The reported diameter and PDI were obtained from the cumulants fit of the autocorrelation function. Zeta potential measurements were performed in 0.1×PBS, pH 7.4 and calculated using the Smoluchowski approximation.
# BALB/c mice = conditions: spike mRNA LNPs on day 0 and day 21, serum day 35
# Experimental: Briefly, 6-8 week old BALB/c mice were vaccinated with 1 g of mRNA LNPs on day 0 and on day 21, and serum was collected on day 35 to characterize the antibody response to vaccination.
# Immunization studies. […] All LNPs were injected IM in the quadricep with an injection volume of 50 μL with the doses specified in the main text. All vaccination experiments followed a prime-boost dosing regimen with doses given on day 0 and day 21. On day 35, mice were sacrificed, and blood was collected via cardiac puncture and their spleens were collected for further characterization.
# Binding antibody ELISAs. […] Plates were coated overnight at 4° C. by adding 100 μL of a 1 μg/mL antigen solution in 100 mM carbonate buffer, pH 9.6 to each well. The coated plates were then washed with ELISA wash buffer (Biolegend) and blocked for 1 hr. at room temperature (RT) with 150 μL of 1% BSA in PBS. The plate was then washed again, and 100 μL of serially diluted serum samples were then added to the plate and incubated at RT for 1 hr. Next, the plate was washed and the secondary goat anti-mouse IgG, HRP antibody (ThermoFisher) was diluted 1:3,000. 100 μL of this solution added to each well an incubated at RT for 1 hr. After incubation, the plate was washed and 100 μL of TMB chromogen solution (ThermoFisher) was added to each well and incubated for 30 mins. Finally, the HRP reaction was stopped by the addition of 100 μL of 0.5 M H2SO4. The absorbance of each well was immediately read at 450 nm with 600 nm as a reference using an Infinite M200 Pro (Tecan) plate reader. The resultant data were then fit with a 4-PL sigmodal curve and the endpoint titers were taken as the point at which this curve crossed four times the absorbance of the blank wells.
# mice [2] = conditions: female BALB/cJ mice, 6 hours after the boost dose
# mice [3] = test system: mice
# Experimental: Evaluation of the LNPs via intramuscular injection. The in vivo potency of the ionizable lipids was screened through intramuscular injection of LNPs loaded with mRNA encoding firefly luciferase protein. These LNPs were formulated with a molar composition of (35:16:46.5:2.5) using one of the synthesized ionizable lipids, DOPE as a helper lipid, cholesterol, and DMPE-PEG respectively. mRNA-loaded LNPs were intramuscularly administered in mice at a dose of 1 μg, and expression of luciferase protein was monitored at 6 hours via IVIS bioluminescent imaging (FIG. 3). […] Without wishing to be bound by theory, increased levels of protein expression may enhance the response to vaccination.
# In Vitro and In Vivo Screening of AMG Lipid Library. Following synthesis, the mRNA delivery efficacy of the AMG lipids was evaluated through both in vitro and in vivo screens. To screen the first generation of AMG lipids (FIGS. 11B and 11C), firefly luciferase (FLuc) mRNA was encapsulated into LNPs using a previously reported formulation containing ionizable lipid, 1,2-dioleoyl-sn-glycero-3-phosphoethanolamine (DOPE), cholesterol, and 1,2-dimyristoyl-rac-glycero-3-methoxypolyethylene glycol-2000 (DMG-PEG).^19 C2C12 myoblast cells were treated with these LNPs and FLuc expression was evaluated at 24 hrs. (FIG. 16). […] Each of these batches was then injected IM into the quadriceps of mice, and expression was characterized via IVIS imaging (Screen 1, FIG. 11E).
# AMG lipids for enhanced mRNA delivery and improved tolerability. A rational design approach was used to further vary the ionizable lipid structure to enhance the mRNA delivery and immunogenicity. […] The lipid tail structure was varied to promote efficient LNP self-assembly while simultaneously promoting endosomal membrane disruption.^18 Monounsaturated (G41-G44) or fully saturated (GC12-GC18) lipid tails were developed. […] Without wishing to be bound by any particular theory, tail length may impact membrane fusion and endosomal escape.^10,11
# Next, the headgroup was further modified to further improve delivery. Headgroups play a multifunctional role including enhancing LNP-mRNA interactions, promoting membrane-LNP fusion and endosomal escape which all contribute to mRNA delivery.^23 A series of similar aza-crown ethers were used to further investigate structure-activity relationship and enhance mRNA delivery. These headgroups featured between three and eight nitrogens linked by varying length of methylene chains. Each of these headgroups were reacted with tail G41 to synthesize a next generation of AMG lipids, which were then formulated with FLuc mRNA and evaluated for mRNA delivery following IM administration in mice (FIG. 12B).
# [4] = test system: Lentiviruses pseudotyped with the B.1.617.2 spike protein; type: cell-based; conditions: 293T-ACE2 cells, GFP reporter
# mice [5] = test: hEPO mRNA LNP protein production after intravenous administration; type: in vivo
# [6] = intravenous delivery of mRNA to the liver (FIG. 18), EPO in blood 6 hours
compound,measurement,setting,value
CCCCCC/C=C\CCCC(=O)OCC(O)CN1CCN(CC(O)COC(=O)CCC/C=C\CCCCCC)CCN(CC(O)COC(=O)CCC/C=C\CCCCCC)CCN(CC(O)COC(=O)CCC/C=C\CCCCCC)CCN(CC(O)COC(=O)CCC/C=C\CCCCCC)CCN(CC(O)COC(=O)CCC/C=C\CCCCCC)CC1 (stereo not drawn) [AMG1541],serum PCSK9 levels,PCSK9 gene,significant reduction in serum PCSK9 levels
same,EE %,[1]; Ribogreen assay,86.0935%
same,Diameter (nm),[1]; dynamic light scattering,85 nm
same,PDI,[1]; dynamic light scattering,0.107
same,antibody titers after vaccination,BALB/c mice,high antibody titers; also recorded: highest antibody titers
same,fold higher serum IL-2 than in SM-102 vaccinated mice,mice [2],5 fold
same,serum cytokine levels compared with SM-102,mice [2]; except IL-2,comparable cytokine levels
same,fold higher expression compared to AMG104,"mice [3]; IM, 1 μg, 6 hours",4.5 fold
same,fold higher in vivo mRNA transfection compared to SM-102,"mice [3]; IM, 1 μg, 6 hours",3.5 fold
same,fold improvement in expression over cKK-E12,"mice [3]; IM, 1 μg, 6 hours",1.7 fold
same,potency in intramuscular administration of mRNA compared to SM-102 and ALC-0315,"mice [3]; mouse, in vivo",equal or higher potency
same,times higher in vivo mRNA delivery compared to FDA-approved counterparts,"mice [3]; mouse, in vivo",approximately three
same,fold higher infection inhibition IC50 than AMG1041,[4],approximately 2 fold
same,"hEPO expression profile in the liver, comparable to MD-1",mice [5]; administered intravenously,excellent hEPO expression profile
same,hEPO protein expression in liver,mice [5]; dose range of 0.25-1 mg/kg,consistent levels of protein expression
same,fold higher protein expression than Lipid 5,"mice [5]; hEPO mRNA, 1 mg/kg dose",3-4 fold
same,hEPO protein expression,mice [5]; higher doses beyond 2 mg/kg,reduced protein expression
same,expression relative to cKK-E12,mice [5]; intravenous delivery of mRNA to the liver (FIG. 18),comparable expression to cKK-E12
same,fold higher expression than LP-01,mice [5]; [6],~5 fold
same,fold higher expression than Lipid 5,mice [5]; [6],~3 fold
same,"hEPO production in liver, repeat dosing",mice [5]; repeat dosing over 3 weeks at 0.05-1 mg/kg,consistent hEPO production
